The values below come from ChEMBL document CHEMBL1201862, “PubChem BioAssay data set” (2004).

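Where inhibition never reached the appropriate level, the endpoint shown equals the highest concentration tested. Otherwise, values were interpolated linearly from a five-concentration, 48-hour dose response in 96-well plates. GI50 is the concentration that inhibits growth by half.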 Calls of active or inactive are those of the source. No stated cut-off is given here; in the data, active = GI50 up to about 1.1 µM and inactive = higher.

One may read the GI50 as the concentration that inhibits growth by half.

Test systems include 786-0; CAKI-1; CCRF-CEM; EKVX; HCC 2998; HCT-15; HL-60; HOP-92; HT-29; M14; NCI-H226; NCI-H23; NCI-H460; OVCAR-5; SF-268; SK-MEL-5; SK-OV-3; SN12C; SNB-19; SR.
Holding throughout (experiment): DTP human tumour cell line panel, 48 h

As to `COC12OC3CC4(C)C(=CC3OC(OC(C)C1O)C2O)CCC1C4CCC2(C)C(c3ccc(=O)oc3)CCC12O` (stereo unspecified), the GI50 in the assay with 786-0 is 0.00134 µM (active); in the assay with CAKI-1, 0.00147 µM (active); in the assay with CCRF-CEM, 0.00125 µM (active); in the assay on EKVX, < 0.001 µM (active); with HCC 2998, 0.00338 µM (active); in the assay with HCT-15, 0.00216 µM. Besides, the GI50 in the assay with HL-60 was 0.00139 µM (active); with HOP-92, 0.00535 µM (active); in the assay with HT-29 it was 0.00139 µM (active); with M14 it was 0.0023 µM (active); in the assay on NCI-H226, 0.00246 µM (active); with NCI-H23, 0.00125 µM (active). Besides, the 50% growth inhibitory concentration (GI50) with NCI-H460 was 0.0014 µM (active); with OVCAR-5 it was 0.00132 µM (active); in the assay on SF-268, 0.00105 µM (active); in the assay on SK-MEL-5, < 0.001 µM (active); with SK-OV-3, 0.00289 µM (active); in the assay on SN12C, < 0.001 µM (active). Also, the GI50 with SNB-19 was 0.00213 µM (active); with SR, 0.0014 µM (active).

With `N=c1oc2ccc([N+](=O)[O-])cc2cc1C(=O)NCc1ccccc1`, the GI50 was 24.6 µM (inactive) with 786-0; 19.2 µM (inactive) with CAKI-1; 27 µM (inactive) in the assay with CCRF-CEM; 38.8 µM (inactive) with EKVX; 32.1 µM (inactive) in the assay with HCC 2998; 17.8 µM in the assay on HCT-15. Besides, the GI50 with HL-60 was 27.2 µM (inactive); in the assay on HOP-92, 18 µM (inactive); in the assay on HT-29 it was 18.5 µM (inactive); with M14, 23.4 µM (inactive); with NCI-H226 it was 12.9 µM (inactive); in the assay on NCI-H460, 41 µM (inactive). The GI50 was 32.9 µM (inactive) in the assay on OVCAR-5; 22.3 µM (inactive) in the assay on SF-268; 18.7 µM (inactive) in the assay with SK-MEL-5; 39.2 µM (inactive) with SK-OV-3; 19.9 µM (inactive) in the assay with SN12C; 39 µM (inactive) in the assay with SNB-19. In addition, the GI50 in the assay with SR is 34.4 µM (inactive).

In the case of `Cc1ccccc1C1=C/C(=C(\SS/C(C(=O)c2ccc(OCC(=O)O)c(Cl)c2Cl)=C2\C=C(c3ccccc3C)SS2)C(=O)c2ccc(OCC(=O)O)c(Cl)c2Cl)SS1`, the GI50 in the assay with 786-0 is 33.3 µM (inactive); in the assay with CAKI-1 it was 37.6 µM (inactive); in the assay with CCRF-CEM, 12.5 µM (inactive); in the assay on EKVX, 37.8 µM (inactive); in the assay on HCC 2998, 39.4 µM (inactive); in the assay with HCT-15, 24 µM. For the same molecule, the GI50 was 2.96 µM (inactive) in the assay on HL-60; 5.51 µM (inactive) in the assay on HOP-92; 33.1 µM (inactive) in the assay with HT-29; 25.5 µM (inactive) in the assay on M14; 17.9 µM (inactive) in the assay with NCI-H226; 21.5 µM (inactive) in the assay on NCI-H23. The GI50 with NCI-H460 is 26.4 µM (inactive); with OVCAR-5, 51.1 µM (inactive); with SF-268, 18 µM (inactive); in the assay with SK-MEL-5 it was 26.3 µM (inactive); with SK-OV-3 it was 39.9 µM (inactive); with SN12C, 20.1 µM (inactive). Besides, the GI50 with SNB-19 is 22.5 µM (inactive); with SR it was 24.1 µM (inactive).

Turning to `O=C(O)c1c2c(cc3c1CC1(Cc4ccccc4C1=O)C3)CCC2` (stereo unspecified), the GI50 is 47.5 µM (inactive) in the assay with 786-0; 41.5 µM (inactive) with CAKI-1; 9.91 µM (inactive) in the assay on CCRF-CEM; 33.9 µM (inactive) with EKVX; 3.33 µM (inactive) in the assay with HCC 2998; 14.8 µM in the assay on HCT-15. Further, the GI50 was 3.17 µM (inactive) with HL-60; 25.5 µM (inactive) with HOP-92; 14.8 µM (inactive) with HT-29; 18.9 µM (inactive) in the assay with M14; 24.3 µM (inactive) with NCI-H226; 44 µM (inactive) in the assay on NCI-H23. The GI50 in the assay on NCI-H460 was 4.62 µM (inactive); in the assay with OVCAR-5 it was 65.5 µM (inactive); with SF-268, 59.4 µM (inactive); with SK-MEL-5, 19.6 µM (inactive); in the assay on SK-OV-3 it was 47.4 µM (inactive); with SN12C, 46.5 µM (inactive). Also, the GI50 in the assay with SNB-19 is 47 µM (inactive); in the assay with SR, 2.93 µM (inactive).

With `N#Cc1nc(Sc2cnsn2)c(Sc2cnsn2)nc1C#N`, the GI50 in the assay with 786-0 was 6.78 µM (inactive); with CAKI-1, 6.47 µM (inactive); with CCRF-CEM it was 0.426 µM (active); with EKVX, 10.4 µM (inactive); in the assay on HCC 2998 it was 18.7 µM (inactive); in the assay on HCT-15, 6.68 µM. Besides, the GI50 in the assay on HL-60 is 1.95 µM (inactive); in the assay on HOP-92, 20 µM (inactive); in the assay with HT-29, 20.6 µM (inactive); in the assay on M14, 20.4 µM (inactive); with NCI-H226, 19.9 µM (inactive); with NCI-H23, 21.6 µM (inactive). The GI50 is 24.6 µM (inactive) with NCI-H460; 18.9 µM (inactive) in the assay with OVCAR-5; 19.4 µM (inactive) in the assay with SF-268; 14.9 µM (inactive) in the assay with SK-MEL-5; 17.9 µM (inactive) with SK-OV-3; 21.4 µM (inactive) in the assay with SN12C. Besides, the GI50 is 30 µM (inactive) with SNB-19 and 8.91 µM (inactive) in the assay on SR.

Regarding `C[C@H]1CC[C@H](NC(=O)N(CCCl)N=O)CC1`, the GI50 in the assay on 786-0 was 31.6 µM (inactive); with CAKI-1 it was 27.2 µM (inactive); with CCRF-CEM it was 13.2 µM (inactive); in the assay with EKVX, 78.3 µM (inactive); in the assay with HCC 2998, 44 µM (inactive); in the assay on HCT-15 it was 40.6 µM. The GI50 was 14.4 µM (inactive) in the assay with HL-60; 24.4 µM (inactive) with HOP-92; 51.2 µM (inactive) in the assay with HT-29; 27.6 µM (inactive) in the assay with M14; 59 µM (inactive) with NCI-H226; 54.5 µM (inactive) with NCI-H23. Besides, the GI50 was 39.1 µM (inactive) with NCI-H460; 55.7 µM (inactive) with OVCAR-5; 22.1 µM (inactive) in the assay on SF-268; 40.4 µM (inactive) in the assay with SK-MEL-5; 77.3 µM (inactive) in the assay with SK-OV-3; 40.4 µM (inactive) in the assay on SN12C. In addition, the GI50 was 38.7 µM (inactive) in the assay on SNB-19 and 10.6 µM (inactive) in the assay on SR.

For `O=C1Nc2ccccc2/C1=C/c1ccccc1`, the GI50 was 13.8 µM (inactive) with 786-0; 29.2 µM (inactive) with CAKI-1; 17.8 µM (inactive) in the assay with CCRF-CEM; 13.8 µM (inactive) with EKVX; 15.8 µM (inactive) in the assay on HCC 2998; 14 µM in the assay with HCT-15. In addition, the GI50 in the assay on HL-60 was 14.6 µM (inactive); in the assay with HOP-92 it was 11 µM (inactive); in the assay on HT-29 it was 22.6 µM (inactive); with M14 it was 16.7 µM (inactive); in the assay on NCI-H226, 17.1 µM (inactive); in the assay on NCI-H23 it was 18.1 µM (inactive). Moreover, the GI50 in the assay on NCI-H460 is 15.5 µM (inactive); in the assay on OVCAR-5, 18.5 µM (inactive); in the assay with SF-268, 15.6 µM (inactive); in the assay with SK-MEL-5 it was 13.3 µM (inactive); in the assay with SK-OV-3 it was 28.8 µM (inactive); in the assay on SN12C, 14.1 µM (inactive). Further, the results for the GI50 in the assay on SNB-19 and in the assay with SR were 14.5 µM (inactive) and 14.4 µM (inactive), respectively.

With `CC(=O)OCC(Br)C1(C)CCC(C(C)(C)Br)O1` (stereo unspecified), the GI50 is > 100 µM (inactive) in the assay with 786-0; > 100 µM (inactive) in the assay on CAKI-1; > 100 µM (inactive) in the assay with CCRF-CEM; > 100 µM (inactive) in the assay on EKVX; 98.6 µM (inactive) in the assay on HCC 2998; > 100 µM (inactive) with HL-60. The GI50 with HOP-92 is 20.6 µM (inactive); in the assay with HT-29 it was 62.7 µM (inactive); in the assay with M14, 89.7 µM (inactive); with NCI-H226 it was 32.8 µM (inactive); with NCI-H23, 65.5 µM (inactive); with NCI-H460, 57.9 µM (inactive). Also, the GI50 was > 100 µM (inactive) in the assay on OVCAR-5; > 100 µM (inactive) in the assay on SF-268; 35.9 µM (inactive) in the assay with SK-MEL-5; > 100 µM (inactive) in the assay with SK-OV-3; 94.2 µM (inactive) with SN12C; > 100 µM (inactive) in the assay on SNB-19. Besides, in the assay with SR, the GI50 was 77.1 µM (inactive).

Take `CCC12CCCN(Cc3ccccc3)C1c1c(n(C)c3ccccc13)C(C(=O)OC)C2` (stereo unspecified): the GI50 was 206 µM (inactive) with 786-0; 205 µM (inactive) in the assay with CAKI-1; 143 µM (inactive) in the assay with CCRF-CEM; > 239 µM (inactive) in the assay with EKVX; 164 µM (inactive) in the assay on HCC 2998; 70.3 µM in the assay on HCT-15. Further, the GI50 in the assay with HL-60 is 87.3 µM (inactive); with HOP-92 it was 79.8 µM (inactive); with HT-29, 73.1 µM (inactive); in the assay with NCI-H226, 66.2 µM (inactive); in the assay on NCI-H23 it was 77.1 µM (inactive); in the assay on NCI-H460, 117 µM (inactive). Also, the GI50 was 78.2 µM (inactive) in the assay with OVCAR-5; 175 µM (inactive) in the assay with SF-268; 43.8 µM (inactive) with SK-MEL-5; 236 µM (inactive) in the assay with SK-OV-3; 84.1 µM (inactive) with SN12C; 72.9 µM (inactive) in the assay with SNB-19. In addition, in the assay on SR, the GI50 was 72.6 µM (inactive).

On to `CC1(C)OC([C@H](O)CO)C([C@H]2NCCS2)O1` (stereo partly specified), for which the GI50 was > 100 µM (inactive) in the assay on 786-0; > 100 µM (inactive) in the assay with CAKI-1; > 100 µM (inactive) with CCRF-CEM; > 100 µM (inactive) in the assay with EKVX; > 100 µM (inactive) in the assay on HCC 2998; more than 100 µM in the assay on HCT-15. Further, the GI50 in the assay on HL-60, with HOP-92, with HT-29, with M14, in the assay with NCI-H226 and with NCI-H23 was > 100 µM (inactive) throughout. Besides, the GI50 in the assay on NCI-H460, in the assay with OVCAR-5, in the assay with SF-268, in the assay on SK-MEL-5, in the assay with SK-OV-3 and in the assay on SNB-19 was > 100 µM (inactive) in each case. The GI50 in the assay on SR is > 100 µM (inactive).
